Test results reported in PubChem BioAssay (NCI).
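Method: 48-hour compound exposure of cells in 96-well plates, five concentrations, linear interpolation of endpoints. At the GI50, growth is halved. Definition used: TGI = concentration required for complete inhibition of growth.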

How the values were obtained:
Assay in all cases: growth of human tumour cells (NCI), 48 h
HOP-62 NSCLC = test system: HOP-62 NSCLC
COLO 205 colon = test system: COLO 205 colon
SF-539 CNS = test system: SF-539 CNS
SK-MEL-2 melanoma = test system: SK-MEL-2 melanoma
OVCAR-8 ovarian = test system: OVCAR-8 ovarian
SF-268 CNS = test system: SF-268 CNS
CCRF-CEM leukemia = test system: CCRF-CEM leukemia
MALME-3M melanoma = test system: MALME-3M melanoma
EKVX NSCLC = test system: EKVX NSCLC
OVCAR-3 ovarian = test system: OVCAR-3 ovarian

| Compound | GI50 (HOP-62 NSCLC) | TGI (HOP-62 NSCLC) | GI50 (COLO 205 colon) | TGI (COLO 205 colon) | GI50 (SF-539 CNS) | TGI (SF-539 CNS) | GI50 (SK-MEL-2 melanoma) | TGI (SK-MEL-2 melanoma) | GI50 (OVCAR-8 ovarian) | TGI (OVCAR-8 ovarian) | GI50 (SF-268 CNS) | TGI (SF-268 CNS) | GI50 (CCRF-CEM leukemia) | TGI (CCRF-CEM leukemia) | GI50 (MALME-3M melanoma) | TGI (MALME-3M melanoma) | GI50 (EKVX NSCLC) | TGI (EKVX NSCLC) | GI50 (OVCAR-3 ovarian) | TGI (OVCAR-3 ovarian) |
| --- | --- | --- | --- | --- | --- | --- | --- | --- | --- | --- | --- | --- | --- | --- | --- | --- | --- | --- | --- | --- |
| C=C1CC2(OC1=O)C(=O)Nc1ccccc12 (stereo not given) | 12.6 µM | 29.6 µM | 0.885 µM | 2.41 µM | 1.88 µM | 3.81 µM | 13.4 µM | 30 µM | 2.91 µM | 11 µM | 6.72 µM | 26 µM | 2.11 µM | 7.15 µM | 1.24 µM | 2.64 µM | 13.5 µM | 26.7 µM | 1.11 µM | 2.77 µM |
| O=C1C(=Cc2c(O)cc(O)cc2O)C(=O)c2ccccc21 |  | > 100 µM |  | > 56 µM |  | > 58.5 µM |  | > 56.5 µM |  | > 59.7 µM |  | > 63.1 µM |  | > 73.1 µM |  | > 59.3 µM |  | > 100 µM |  | > 55 µM |
| COc1cc(-c2nc(SCCC(C)C)nc(Nc3ccc(S(N)(=O)=O)cc3)c2C#N)cc(OC)c1OC | 4.12 µM | > 100 µM | 2.06 µM | 5.08 µM | 2.01 µM | 5.22 µM | 2.47 µM | 6.16 µM | 4 µM | > 100 µM | 3.67 µM | > 100 µM | 2.88 µM | > 100 µM | 1.6 µM | 4.14 µM | 3.42 µM | > 100 µM | 2.38 µM | 6.12 µM |
| Cc1cc2c([nH]c3ccccc32)c2c1OC(C)(C)C1C3CC(C)(C)Oc4c(C)cc5c6ccccc6n(c5c43)C21 (stereo not given) |  | > 100 µM |  | > 100 µM |  | > 100 µM |  | > 100 µM |  | > 100 µM |  | > 100 µM |  | > 100 µM |  | > 100 µM |  | > 100 µM |  | > 100 µM |
| Cc1ncc(C(=O)Nc2ccc(CN3CCN(C)CC3)c(C(F)(F)F)c2)cc1C#Cc1cnc(N)cc1C#N | 0.573 µM | 2.91 µM | 0.0538 µM | 2.32 µM | 0.542 µM | 2.93 µM | 0.232 µM | 1.03 µM | 1.3 µM | 5.35 µM | 0.605 µM | 3.33 µM | 0.549 µM | 3.2 µM | 0.0196 µM | 0.125 µM | 1.12 µM | 3.38 µM | 0.995 µM | 3.25 µM |
| C#CCOc1cccc(Nc2ncnc3cc(NC(=O)CCl)ccc23)c1 | 11.3 µM | 28.8 µM | 5.04 µM | 19.8 µM | 3.64 µM | 15 µM | 12.4 µM | 27.4 µM | 3.32 µM | 11 µM | 4.32 µM | 19.7 µM | 1.55 µM | 8.85 µM | 5.21 µM | 20.5 µM | 12 µM | 30 µM | 1.84 µM | 4.35 µM |
| CN(C)CC/[N+]([O-])=C(/c1ccccc1)C12CC3CC(CC(C3)C1)C2 |  | 28.9 µM |  | 30.3 µM |  | 30.8 µM |  | 34.9 µM |  | 31.7 µM |  | 35.9 µM |  | 34.3 µM |  | 55.2 µM |  | 38.1 µM |  | 27.8 µM |
| Cc1cccc(NC(=O)c2cccc([N+](=O)[O-])c2O)c1C |  | 52.4 µM |  | 32.9 µM |  | 96.9 µM |  | 46.9 µM |  | > 100 µM |  | > 100 µM |  | > 31.6 µM |  | > 84.2 µM |  | > 100 µM |  | > 100 µM |
